This passage reports melting point results from a melting point compilation (Tetko et al.; mined from patent text by program, amines drawn as free bases though some values may be those of a salt).

For orientation: melting point means the temperature, or range, at which the solid turns liquid. In the case of `CCc1c(C(F)(F)F)nn(-c2ccc(S(N)(=O)=O)nc2)c1-c1ccc(-c2cncs2)c(F)c1`, the melting point is 189 to 191 °C. Regarding `COc1cc(Nc2c(C#N)cnc3cc(C#CCCN4CCNCC4)c(OC)cc23)c(Cl)cc1Cl`, the melting point lay in the range of 188 to 190 °C.

Compound `O=C1CCCN1CC1(O)CCN(c2ccnc(C(F)(F)F)n2)CC1` yielded a melting point of 170 to 172 °C. To `Cn1c(=O)c2cnc(N)nc2n(C)c1=O` belongs above 300 °C. To `Cc1c(-c2ccc(O)cc2)n(Cc2ccc(OCCN3CC4(C)CC3CC(C)(C)C4)cc2)c2ccc(O)cc12` (stereo unspecified) belongs 98 to 100 °C. Next, `CON=c1cc(C)c2ccccc2[nH]c1=O`: 190 to 193 °C; `C[C@@H](NC(=O)c1cccc(-c2ccc(Cl)cc2)c1)[C@](O)(Cn1cncn1)c1ccc(F)cc1F`: 90 to 91 °C. Compound `COc1c(NCc2cccc(C)c2)cc2oc(=O)[nH]c2c1F` registered a melting point of 160 to 161 °C. To `O=C(OCC1OC(n2cc(I)c(=O)[nH]c2=O)C(F)C1OC(=O)c1ccccc1)c1ccccc1` (stereo unspecified) belongs 197 °C; to `Nc1cc(Cl)c(S)cc1S(N)(=O)=O`, 192 to 195 °C. `COC1=C(OC)C(=O)c2c(cccc2S(=O)(=O)c2ccccc2)C1=O`: the melting point lay in the range of 141 to 142 °C. Next, `CCOC(=O)c1cnncc1NC(=O)Cc1c(F)cc(F)cc1F`: 143 to 144 °C; `COC(=O)/C=C/c1ccc(C)cc1Br`: 70 °C.

As to `CCCc1c(OCCCCCOc2ccc3c(c2CCC)OC(C(=O)OC)CC3)ccc(C(C)=O)c1O` (stereo unspecified), the melting point lay within 57 to 58 °C. To `N#Cc1ccc(N2CCc3ccccc32)cc1` belongs 88.5 to 89.5 °C. To `Cc1ccc(-c2[nH]nc(CO)c2-c2ccc(S(N)(=O)=O)cc2)cc1` belongs 130 °C.

Take `COCc1cc(C(O)CN(Cc2ccccc2)Cc2ccccc2)ccc1OCc1ccccc1` (stereo unspecified): the melting point is 52 to 57 °C.

For the compound `CN1CCN(c2nc3c(cc2F)c(=O)n(OCc2ccccc2)c(=O)n3C2CC2)CC1`, the melting point is 188 to 189 °C. To `Cc1ccc(-c2nc(CCCC#N)c(C(F)(F)F)o2)cc1` belongs 41 to 42.5 °C. Next, `CC(C)C(c1cncnc1C(F)(F)F)N(C)C(=O)Cc1ccccc1` (stereo unspecified): 106 to 109 °C; `COC(=O)N(C)C1CN(C(=O)Nc2ccc(OC(F)(F)F)cc2)N=C1c1ccc(OC(F)F)cc1` (stereo unspecified): 125 to 126 °C; `COc1ccc(-c2cc(=S)n(C)c(=O)[nH]2)cc1OC`: 247 to 249 °C. To `CCOc1nn(-c2ccc(C(F)(F)F)cc2)cc1CCCOc1cc(CCC(=O)O)n(-c2ccccc2)n1` belongs 126 to 127 °C; to `CC1(C)CCC(C)(C)C2=C1CC(C(=O)O)C2`, 125 to 129 °C; to `CSc1cncc(-c2nc(=O)c3ccccc3s2)n1`, 202 to 203 °C. In turn, `O=C1N(CC2CCOCC2)c2ccccc2C12COc1cc3c(cc12)OCCO3` (stereo unspecified) gave a melting point of 129 to 131 °C. To `O=S(=O)(Cc1coc(/C=C/c2ccccc2)n1)c1ccc(CCCn2ccnc2)cc1` belongs 116 to 117 °C; to `CC(=O)OCCOc1ccc(OCCOC(C)=O)c(N)c1`, 67.5 to 69.5 °C; to `C[C@@H]1C[C@@H]2c3cccc4c3N(CCNC4)[C@@H]2C1`, 155 to 158 °C.

Compound `CCCCc1c(C=O)ccc2cc(OC)ccc12` displayed a melting point of 56 to 57 °C.

For the compound `CCCc1nc(Cl)c(-c2ccc(C)cc2)c(NS(=O)(=O)c2ccc(C(C)(C)C)cc2)n1`, the melting point was 138 to 139 °C. Next, `Cc1ccc(Cl)c(Nc2ccccc2C=C2SC(=N)NC2=O)c1Cl`: 235 to 238 °C. Next, `O=C(O)Cc1cc(Cl)cc2c(-c3ccccc3)onc12`: 188 to 190 °C; `CCN(CC)CCN(CC)C(=O)c1ccc(Nc2ccnc3cc(Cl)ccc23)cc1`: 166 °C; `COc1ccc(Cl)cc1C(=O)NCc1ccc(-c2ccc(OC(C)(C)C(=O)O)cc2)cc1`: 104 °C.

`Cc1c(C)c2c(c(C)c1Br)C(c1ccc(-c3ccccc3)cc1)CO2` (stereo unspecified) gave a melting point of 153 to 154 °C. Next, `COc1cccc(/C=C/c2nc3c(c(=O)n(C)c(=O)n3C)n2C)c1OC`: 234 to 237 °C; `O=C1CCc2cc(OCc3ccccc3)c(O)c([N+](=O)[O-])c21`: 252 to 254 °C; `CCOC(=O)c1ccc2c(c1)N(C(=O)C(C)Br)c1ccccc1C=C2` (stereo unspecified): 163 °C.

As for `COc1cc2nc(-c3ccc(Cl)cc3)nc(O)c2cc1OC`, the melting point turned out to be 329 °C. `[N-]=[N+]=C1C(=O)Nc2cccc(Cl)c21` returned a melting point of 214 to 215 °C. To `Cc1ccc2c(c1)CC(=O)c1cc(C(C)C(=O)O)ccc1S2` (stereo unspecified) belongs 157 to 159 °C; to `C=CCNC(=O)N1CC(OCc2ccc(F)cc2)C1`, 97 to 99 °C. Next, `CC(=O)Nc1ccc(CN2C(=O)[C@H]3CCC[C@H]3N(C(=O)CN3C(=O)c4ccccc4C3=O)c3ccccc32)cc1` (relative stereo): 303 to 306 °C. To `CNC(=O)CCNC(=O)NOCCCl` belongs 125 to 126 °C. As for `Cn1nc(-c2c(F)cccc2Cl)nc1-c1cc(-c2ccc(OC(F)(F)F)cc2)sc1Br`, the melting point is 135 to 136 °C. Turning to `Cc1cc2c(Br)ccc([N+](=O)[O-])c2cn1`, the melting point worked out at 146 °C. To `CC(=O)OCC(=O)C1(OC(C)=O)C(C)CC2C3CC(C)C4=CC(=O)C=CC4(C)C3C(O)CC21C` (stereo unspecified) belongs 124 to 126 °C; to `CC(C)(C)CCOc1c(-c2ccc(S(C)(=O)=O)cc2)cnn(CC(F)(F)F)c1=O`, 83 to 85 °C; to `O=C(NC1CCC(CCN2CCN(c3nccc4c3OCC4)CC2)CC1)C1CCCOC1` (racemic), 203 °C. The compound `CC(C)(C)OC(=O)NCc1cccc2c1CN(C1CCC(=O)NC1=O)C2=O` (stereo unspecified) returned a melting point of 239 to 241 °C. To `CN1Cc2c(C#CC(C)(C)C)ncn2-c2cccc(Cl)c2C1=O` belongs 126 to 128 °C. To `CCOC(=O)Nc1cccc(C)c1C(=O)OCC` belongs 38.5 to 39.5 °C.

`COC(=O)CCCc1cc2nc(C(F)(F)F)ccc2[nH]1` registered a melting point of 137 °C. Next, `CCCC[C@H]1CC[C@H](OC(=O)c2cc(Sc3ccc(C)cc3)c3c(c2N)C(=O)c2ccccc2C3=O)CC1`: 176 to 177 °C; `CCOC(=O)C(OC(=O)c1ccc(O)cc1)C(F)(F)F` (stereo unspecified): 83.8 °C; `O=C(O)C1COC(C(F)(F)F)(C(F)(F)F)O1` (stereo unspecified): 62 to 63 °C. To `O=c1c(-c2cccc(C(F)(F)F)c2)c(Cl)cnn1-c1ccc(F)cc1` belongs 88 to 90 °C; to `CS(=O)(=O)c1ccc(-c2cnn(CC(O)c3ccccc3)c(=O)c2-c2ccc(F)cc2)cc1` (stereo unspecified), 205 to 207 °C.

The compound `O=C(NCc1ccccc1)c1ccnc(NC(=O)c2ccccc2)c1` displayed a melting point of 174 to 176 °C. Next, `O=C1COc2ccc(N3C(=O)C4=C(CCCC4)C3=O)cc2N1CC1CCOCC1`: 187 to 189 °C; `COc1cc(OC)c2c(=O)[nH]c(-c3ccc(OC)c(-c4ccc(S(C)(=O)=O)cc4)n3)nc2c1`: 279 to 281 °C; `Oc1cccnc1Oc1cccc(Cl)c1`: 109 to 110 °C. Next, `CC1(C)CC(NCCCCCCC(=O)O)CC(C)(C)N1`: 162 to 165 °C. To `CC(=O)C=Cc1c(C)c(C)c2c(c1C)CC(C)(C)O2` belongs 86 to 87 °C. For `CCCc1c(C(=O)C(C)C)c2ccc(C(=O)OC)cc2n1Cc1ccccc1C#N`, the melting point fell in the range of 159 to 161 °C.

Take `CC(C)(C)[C@H](NC(=O)[C@@H](CC(=O)OCc1ccccc1)n1ccc(-c2ccc(-c3ccc(C#N)cc3)cc2)c1)C(=O)Nc1ccncc1`: the melting point lay within 115 to 116 °C.

In turn, `COc1cc2c(cc1OC)C(c1cccc(Cl)c1)=NN=C(C)C2` returned a melting point of 166 to 168 °C.

Compound `OC(C1=NCCN1)(c1ccccn1)c1cccs1` (stereo unspecified) returned a melting point of 151 to 152 °C. Next, `CNS(=O)(=O)CCc1ccc2[nH]cc(CCCN3C(=O)c4ccccc4C3=O)c2c1`: 169 to 170 °C. Next, `COc1ccc(Nc2nc(Nc3cc4c(cc3OC)CNC(CC3CC3)C(=O)N4C)ncc2Cl)c(-n2cccn2)c1` (stereo unspecified): 94 to 96 °C; `CC(C)C[C@@H](C#N)NC(=O)[C@@H]1CCCC[C@@H]1NC(=O)c1ccc(-n2cncn2)cc1`: 156 to 159 °C; `CSC(C(=O)c1cc(-c2ccccc2)on1)N1CCOCC1` (stereo unspecified): 124 to 126 °C. To `CC(C)(C)OC(=O)NC[C@H]1CC[C@H](CNS(=O)(=O)c2cccc3ccccc23)CC1` belongs 199 to 200 °C. `CCC(CC)C1CC1(CN)C(=O)O` (stereo unspecified) had a melting point of 255 to 257 °C. Next, `O=S(=O)(c1cccc(-c2cc(-c3nc(-c4ccc(C(F)(F)F)cc4)cc(C(F)(F)F)n3)ccn2)c1)N(CCO)CCO`: 186 °C; `COC(=O)c1ccc(C=Cc2ccc(-c3cc4cc(Cl)ccc4o3)cc2)cc1`: 264 to 266 °C; `COC(=O)c1ccccc1OCCN1CCC(c2c[nH]c3ccccc23)CC1`: 124 to 125 °C.

In turn, `CC(O)=C(C#N)C(=O)c1ccc(F)c(F)c1` displayed a melting point of 51 to 54 °C.

Consider `CC1=CC(c2cccc(Cl)c2Cl)C(c2nnco2)=C(C)N1` (stereo unspecified), for which the melting point worked out at 235 °C. Next, `NS(=O)(=O)c1ccc(-n2nc(C(F)F)cc2-c2nc3cccc(F)c3s2)cc1`: 246 to 248 °C; `COc1ccc(-c2cc(-c3sc(N)nc3-c3cccc(C)n3)ccn2)cc1`: 188 to 190 °C; `CCCOc1ccc2c(c1)C(c1ccc(OC)cc1OCC(=O)O)C(CN)C2c1ccc2c(c1)OCO2` (stereo unspecified): 237 to 242 °C. Take `Cn1cnc2cc(F)ccc2c1=O`: the melting point was in the range of 133 to 135 °C. The compound `O=C(Nc1cc(S(=O)(=O)NCCO)sc1Cl)c1cnn2c(C(F)(F)F)cc(-c3ccc(C(F)(F)F)cc3)nc12` returned a melting point of 191 °C.

As for `CCC(C)(C)NCc1nc2sc3c(c2c(-c2ccc(OC)c(OC)c2)c1Cl)CCN(Cc1ccccc1)C3`, the melting point is 128 to 129 °C.
